# Experimental data reported in patent US20260347403A1, “FUNGICIDAL COMPOUND” (priority 2022, published 2026).
# Read-outs that look alike come from different tables or passages of the source. Numbered stars: 1 amine (or outer) side, 2 acyl side, 3 side chain; on linkers, the order of the positions; unused ones are H or OH. Bridge positions count the residues as written; N and C are the ends. Square brackets hold non-standard residues; d marks the D form. Peptide text beside a SMILES is read from it. * marks the point of attachment. Tridecanoyl(12-Me) = CC(C)CCCCCCCCCCC(=O)*; X1 = NC(=O)CC(O)C(N[*:1])C(=O)[*:2]; NMeF = CN[CH](Cc1ccccc1)C(=O)O; NMeN = CN[CH](CC(N)=O)C(=O)O; X2 = CCC(C)CCCCCCCCCCC(=O)*
# Experiments:
# Phaeosphaeria nodorum = test: Leaf disc test on wheat, Phaeosphaeria nodorum (Glume Blotch), 5-7 days after application; format: in vivo, Phaeosphaeria nodorum (Septoria nodorum) on wheat; conditions: Table 5
# Method: Leaf disks or leaf segments of various plant species were cut from plants grown in the greenhouse. The cut leaf disks, or segments were placed in multiwell plates (24-well format) onto water agar. The leaf disks were sprayed with a test solution before inoculation with the fungal spores. Compounds to be tested were prepared as DMSO solutions (max. 10 mg/ml) which were diluted to the appropriate concentration with water plus 0.025% Tween® 20 just before spraying. The inoculated leaf disks or segments were incubated under defined conditions (temperature, relative humidity, light, etc.) according to the respective test system. A single evaluation of disease level was carried out by visual evaluation 3-9 days days after inoculation, depending on the pathosystem as indicated below. Percent disease control relative to the untreated check leaf disks or segments was then calculated.
# Phaeosphaeria Nodorum (Septoria nodorum)/Wheat/Leaf Disc (Glume Blotch)
# Wheat leaf segments cv. Kanzler were placed on agar in a multiwell plate (24-well format) and sprayed with the formulated test compound diluted in water. The leaf disks were inoculated with a spore suspension of the fungus 2 days after application. The inoculated test leaf disks were incubated at 20 °C and 75% rh under a light regime of 12 h light/12 h darkness in a climate cabinet and the activity of a compound was assessed as percent disease control compared to untreated when an appropriate level of disease damage appears in untreated check leaf disks (5-7 days after application)
# Mycosphaerella arachidis = test: Liquid culture, Mycosphaerella arachidis (Cercospora arachidicola), early leaf spot, 4-5 days; format: cell-based; conditions: Mycosphaerella arachidis, read-out: % reduction fungal growth
# Method: Mycelia fragments or conidia suspensions of a fungus, prepared either freshly from liquid cultures of the fungus or from cryogenic storage, were directly mixed into nutrient broth.
# A stock solution for compound of Formula I(a) and Formula I(b) was produced in DMSO (max. 10 mg/ml), which was diluted with water plus 0.025% Tween®20 to produce a 10× concentrated sample and 10 μl of this solution was pipetted into a microtiter plate (96-well format). The nutrient broth containing the fungal spores/mycelia fragments was then added to give an end concentration of the tested compound. The test plates were incubated in the dark at 24 °C and 96% rh. The inhibition of fungal growth was determined photometrically after 2-7 days, depending on the pathosystem, and percent antifungal activity relative to the untreated check was calculated.
# The effect of the test compound (Formula I(a), I(b) and Lipopeptin A) was tested against the following fungi under the conditions as outlined above and specifically herein below:
# Mycosphaerella arachidis (Cercospora arachidicola)/liquid culture (early leaf spot) Conidia of the fungus from cryogenic storage were directly mixed into nutrient broth (PDB potato dextrose broth). The inhibition of growth was determined photometrically 4-5 days after application.
# [1] = tested on: Puccinia recondita f. sp. tritici; test: Leaf painting assay in wheat seedling, Puccinia recondita; format: in vivo, Puccinia recondita f. sp. tritici on wheat (variety Arina); conditions: for % reduction of fungal growth: middle segment; for control on the treated area (middle segment): up to, Table 6, Puccinia
# Method: Wheat seedlings of the variety Riband (for Zymoseptoria tritici trials) or variety Arina (for Puccinia recondite trials) were grown in a glasshouse until 14 d after seeding. At this time, such seedlings usually have a first leaf fully emerged (designated L1), a second leaf fully emerged (L2) and a third leaf (L3) that was partially emerged and in the process of development. Using a permanent pen, two dots were applied on the second leaf such as to generate three segments of roughly equal size: Segment A (at the base), segment B (middle part) and segment C (upper part of the leaf). A stock solution of the test compound was produced in DMSO at a concentration of 10′000 ppm. […] The diluted compound was applied to the middle segment of L2 using a conventional cotton stick; the cotton stick was soaked in the diluted compound and rubbed several times on the adaxial leaf surface between the two marks. 1 day later, the complete plant was inoculated with a fungal spore suspension using a paint brush and application of the spore suspension until before run-off.
# For infection with Puccinia recondita: The test plants were inoculated by spraying them with a spore suspension 1 day after application (spore suspension at 80′000 spores per ml in water supplemented with Tween® 20 at 0.1%). After an incubation period of 1 day at 20 °C and 95% rh, the inoculated test plants were kept at 20 °C and 60% rh in a greenhouse.
# The three segments of the leaf were evaluated individually.
# Zymoseptoria tritici = test: Liquid culture 96-well mixture assay with malonomicin, Zymoseptoria tritici, 72 hrs; format: cell-based; conditions: read-out: control of fungal growth (% reduction)
# Method: (§1) A stock solution for compound of Formula I(a) was produced in DMSO (max. 10 mg/ml). Malonomicin was produced according to Law et al, 2018 (Nature Catalys is |VOL 1|DECEMBER 2018|977-984). A stock solution of malonomicin was produced in water plus 0.025% Tween® 20.
# (§2) Assays to test efficacy of mixtures of the lipopeptide compound of Formula I(a) in combination with malonomicin on the control of fungal pathogens in a liquid culture assay were designed for a 96well plate as outlined in table 1:
# (§3) The 96 well plate design allows to compare disease control of the mixture with disease control of the respective single compound at the same rate.
# (§4) A master plate with 10× concentrated solution of the compound stock solutions diluted in water plus 0.025% Tween® 20 was prepared. The concentration of DMSO (from the stock of compound of Formula (a)) and Tween® 20 was kept constant in all cells of the master plate. 10 μl was transferred from the master plate to a 96well test plate. The nutrient broth containing the fungal spores/mycelia fragments was then added to the test plate to give an end concentration of 1× for the tested compounds (as outlined in Table 8). The test plates were incubated in the dark at 24 °C and 96% rh. The inhibition of fungal growth was determined photometrically after ca 3 days, and percent fungal growth reduction relative to the untreated check was calculated.
# Zymoseptoria tritici (EPPO Code: SEPTTR)
# (§5) Conidia of the fungus from cryogenic storage were directly mixed into nutrient broth (PDB: potato dextrose broth).
# Fusarium culmorum = test: Liquid culture 96-well mixture assay with malonomicin, Fusarium culmorum, 72 hrs; format: cell-based; conditions: read-out: control of fungal growth (% reduction)
# Method: as §1, §2, §3, §4
# Fusarium culmorum (EPPO Code: FUSACU)
# as §5
smiles,measurement,setting,value
CCC(C)CCCCCCCCCCC(=O)NC1C(=O)NC(CC(=O)O)C(=O)NC(C(O)CC(N)=O)C(=O)NC(CO)C(=O)N(C)C(CC(N)=O)C(=O)N(C)C(Cc2ccccc2)C(=O)NC(CCC(N)=O)C(=O)NC(CCC(=O)O)C(=O)OC1C (stereo not shown) [Formula I(b)] (X2-TD[X1]S[NMeN][NMeF]QE; ester 1-C; configuration not given here),% reduction of fungal growth,Phaeosphaeria nodorum; 0.82 ppm,0%
same,% reduction of fungal growth,Phaeosphaeria nodorum; 2.5 ppm,0%
same,% reduction of fungal growth,Phaeosphaeria nodorum; 7.4 ppm,0%
same,% reduction of fungal growth,Phaeosphaeria nodorum; 22 ppm,0%
same,% reduction of fungal growth,Phaeosphaeria nodorum; 67 ppm,0%
same,% reduction of fungal growth,Phaeosphaeria nodorum; 200 ppm,0%
same,inhibition of growth at 0.41 ppm,Mycosphaerella arachidis; Table 2,0%
same,inhibition of growth at 1.2 ppm,Mycosphaerella arachidis; Table 2,0%
same,inhibition of growth at 3.7 ppm,Mycosphaerella arachidis; Table 2,0%
same,inhibition of growth at 11 ppm,Mycosphaerella arachidis; Table 2,90%
same,inhibition of growth at 33 ppm,Mycosphaerella arachidis; Table 2,100%
same,inhibition of growth at 100 ppm,Mycosphaerella arachidis; Table 2,100%
same,inhibition of growth at 0.41 ppm,Mycosphaerella arachidis; Table 3,0%
same,inhibition of growth at 1.2 ppm,Mycosphaerella arachidis; Table 3,0%
same,inhibition of growth at 3.7 ppm,Mycosphaerella arachidis; Table 3,0%
same,inhibition of growth at 11 ppm,Mycosphaerella arachidis; Table 3,100%
same,inhibition of growth at 33 ppm,Mycosphaerella arachidis; Table 3,100%
same,inhibition of growth at 100 ppm,Mycosphaerella arachidis; Table 3,100%
same,% reduction of fungal growth,[1]; 20 ppm,55%
same,% reduction of fungal growth,[1]; 200 ppm,67%
same,control on the treated area (middle segment),[1],up to 70%
"NC[C@@H]1NC(=O)C(C(=O)CC(NC(=O)[C@@H](N)CO)(C(=O)O)C(=O)O)=C1O [malonomicin, {[(2S)-2-amino-3-hydroxypropanoyl]amino}{2-[(5S)-5-(aminomethyl)-4-hydroxy-2-oxo-2,5-dihydro-1H-pyrrol-3-yl]-2-oxoethyl}malonic acid]",inhibition of growth at 1 ppm,Zymoseptoria tritici; malonomicin 1.00 ppm,0%
same,inhibition of growth at 3 ppm,Zymoseptoria tritici; malonomicin 3.00 ppm,0%
same,inhibition of growth at 7.81 ppm,Zymoseptoria tritici; malonomicin 7.81 ppm,0%
same,inhibition of growth at 15.63 ppm,Zymoseptoria tritici; malonomicin 15.63 ppm,20%
same,inhibition of growth at 31.25 ppm,Zymoseptoria tritici; malonomicin 31.25 ppm,20%
same,inhibition of growth at 62.5 ppm,Zymoseptoria tritici; malonomicin 62.5 ppm,50%
same,inhibition of growth at 125 ppm,Zymoseptoria tritici; malonomicin 125 ppm,70%
same,inhibition of growth at 250 ppm,Zymoseptoria tritici; malonomicin 250 ppm,70%
same,inhibition of growth at 500 ppm,Zymoseptoria tritici; malonomicin 500 ppm,90%
same,inhibition of growth at 1000 ppm,Zymoseptoria tritici; malonomicin 1000 ppm,100%
same,inhibition of growth at 1 ppm,Fusarium culmorum; malonomicin 1.00 ppm,0%
same,inhibition of growth at 3 ppm,Fusarium culmorum; malonomicin 3.00 ppm,0%
same,inhibition of growth at 7.81 ppm,Fusarium culmorum; malonomicin 7.81 ppm,0%
same,inhibition of growth at 15.63 ppm,Fusarium culmorum; malonomicin 15.63 ppm,0%
same,inhibition of growth at 31.25 ppm,Fusarium culmorum; malonomicin 31.25 ppm,0%
same,inhibition of growth at 62.5 ppm,Fusarium culmorum; malonomicin 62.5 ppm,0%
same,inhibition of growth at 125 ppm,Fusarium culmorum; malonomicin 125 ppm,20%
same,inhibition of growth at 250 ppm,Fusarium culmorum; malonomicin 250 ppm,20%
same,inhibition of growth at 500 ppm,Fusarium culmorum; malonomicin 500 ppm,20%
same,inhibition of growth at 1000 ppm,Fusarium culmorum; malonomicin 1000 ppm,20%
CC(C)CCCCCCCCCCC(=O)NC1C(=O)NC(CC(=O)O)C(=O)NC(C(O)CC(N)=O)C(=O)NC(CO)C(=O)N(C)C(CC(N)=O)C(=O)N(C)C(Cc2ccccc2)C(=O)NC(CCC(N)=O)C(=O)NC(CCC(=O)O)C(=O)OC1C (stereo not shown) [Formula I(a)] ({Tridecanoyl(12-Me)}-TD[X1]S[NMeN][NMeF]QE; ester 1-C; configuration not given here),inhibition of growth at 1.56 µg/mL,Zymoseptoria tritici; I(a) 1.56 ppm,0%
same,inhibition of growth at 3.125 µg/mL,Zymoseptoria tritici; I(a) 3.125 ppm,20%
same,inhibition of growth at 6.25 µg/mL,Zymoseptoria tritici; I(a) 6.25 ppm,50%
same,inhibition of growth at 12.5 µg/mL,Zymoseptoria tritici; I(a) 12.5 ppm,70%
same,inhibition of growth at 25 µg/mL,Zymoseptoria tritici; I(a) 25 ppm,70%
same,inhibition of growth at 50 µg/mL,Zymoseptoria tritici; I(a) 50 ppm,90%
same,inhibition of growth at 100 µg/mL,Zymoseptoria tritici; I(a) 100 ppm,90%
same,% reduction of fungal growth,Phaeosphaeria nodorum; 0.82 ppm,0%
same,% reduction of fungal growth,Phaeosphaeria nodorum; 2.5 ppm,0%
same,% reduction of fungal growth,Phaeosphaeria nodorum; 7.4 ppm,0%
same,% reduction of fungal growth,Phaeosphaeria nodorum; 22 ppm,0%
same,% reduction of fungal growth,Phaeosphaeria nodorum; 67 ppm,0%
same,% reduction of fungal growth,Phaeosphaeria nodorum; 200 ppm,50%
same,inhibition of growth at 0.41 ppm,Mycosphaerella arachidis; Table 2,0%
same,inhibition of growth at 1.2 ppm,Mycosphaerella arachidis; Table 2,0%
same,inhibition of growth at 3.7 ppm,Mycosphaerella arachidis; Table 2,100%
same,inhibition of growth at 11 ppm,Mycosphaerella arachidis; Table 2,100%
same,inhibition of growth at 33 ppm,Mycosphaerella arachidis; Table 2,100%
same,inhibition of growth at 100 ppm,Mycosphaerella arachidis; Table 2,100%
same,inhibition of growth at 0.41 ppm,Mycosphaerella arachidis; Table 3,0%
same,inhibition of growth at 1.2 ppm,Mycosphaerella arachidis; Table 3,0%
same,inhibition of growth at 3.7 ppm,Mycosphaerella arachidis; Table 3,0%
same,inhibition of growth at 11 ppm,Mycosphaerella arachidis; Table 3,70%
same,inhibition of growth at 33 ppm,Mycosphaerella arachidis; Table 3,100%
same,inhibition of growth at 100 ppm,Mycosphaerella arachidis; Table 3,100%
same,% reduction of fungal growth,[1]; 20 ppm,70%
same,% reduction of fungal growth,[1]; 200 ppm,61%
same,control on the treated area (middle segment),[1],up to 70%
same,inhibition of growth at 1.56 µg/mL,Fusarium culmorum; I(a) 1.56 ppm,0%
same,inhibition of growth at 3.125 µg/mL,Fusarium culmorum; I(a) 3.125 ppm,0%
same,inhibition of growth at 6.25 µg/mL,Fusarium culmorum; I(a) 6.25 ppm,0%
same,inhibition of growth at 12.5 µg/mL,Fusarium culmorum; I(a) 12.5 ppm,0%
same,inhibition of growth at 25 µg/mL,Fusarium culmorum; I(a) 25 ppm,0%
same,inhibition of growth at 50 µg/mL,Fusarium culmorum; I(a) 50 ppm,0%
same,inhibition of growth at 100 µg/mL,Fusarium culmorum; I(a) 100 ppm,0%
